# Measured values: ChEMBL document CHEMBL4680140, “Minor chemical modifications of the aminosteroid derivative RM-581 lead to major impact on its anticancer activity, metabolic stability and aqueous solubility” (Eur J Med Chem, 2020)
# pIC50: −log10 of the molar value. Calls of active or inactive are those of the source. No cut-off for these calls is given here.
# Assays:
# LAPC4 [1] = assay: Antiproliferative activity against human LAPC4 cells assessed as reduction in cell viability at 1 to 5 uM after 72 hrs by MTS assay; format: functional, cell-based; conditions: dose 1-5 µM
# T47D [2] = assay: Antiproliferative activity against human T47D cells assessed as reduction in cell viability at 1 to 5 uM after 72 hrs by MTS assay; format: functional, cell-based; conditions: dose 1-5 µM
# MCF7 [3] = assay: Antiproliferative activity against human MCF7 cells assessed as reduction in cell viability at 1 to 5 uM after 72 hrs by MTS assay; format: functional, cell-based; conditions: dose 1-5 µM
# PANC-1 [4] = assay: Antiproliferative activity against human PANC-1 cells assessed as reduction in cell viability at 1 to 5 uM after 72 hrs by MTS assay; format: functional, cell-based; conditions: dose 1-5 µM
# BXPC-3 = assay: Antiproliferative activity against human BXPC-3 cells assessed as reduction in cell viability at 1 to 5 uM after 72 hrs by MTS assay; format: functional, cell-based; conditions: dose 1-5 µM
# Hs 766 = assay: Antiproliferative activity against human Hs 766 cells assessed as reduction in cell viability at 1 to 5 uM after 72 hrs by MTS assay; format: functional, cell-based; conditions: dose 1-5 µM
# OVCAR-3 [5] = assay: Antiproliferative activity against human OVCAR-3 cells assessed as reduction in cell viability at 1 to 5 uM after 72 hrs by MTS assay; format: functional, cell-based; conditions: dose 1-5 µM
# Caov-3 cell line = assay: Antiproliferative activity against human Caov-3 cells assessed as reduction in cell viability at 1 to 5 uM after 72 hrs by MTS assay; format: functional, cell-based; conditions: dose 1-5 µM
# SK-OV-3 = assay: Antiproliferative activity against human SK-OV-3 cells assessed as reduction in cell viability at 1 to 5 uM after 72 hrs by MTS assay; format: functional, cell-based; conditions: dose 1-5 µM
# PC-3 = assay: Antiproliferative activity against human PC-3 cells assessed as reduction in cell viability after 72 hrs by MTS assay; format: functional, cell-based; conditions: PC-3, 72 h
# LAPC4 [6] = assay: Antiproliferative activity against human LAPC4 cells assessed as reduction in cell viability after 72 hrs by MTS assay; format: functional, cell-based; conditions: LAPC4, 72 h
# LNCaP = assay: Antiproliferative activity against human LNCaP cells assessed as reduction in cell viability after 72 hrs by MTS assay; format: functional, cell-based
# MCF7 [7] = assay: Antiproliferative activity against human MCF7 cells assessed as reduction in cell viability after 72 hrs by MTS assay; format: functional, cell-based; conditions: MCF7, 72 h
# T47D [8] = assay: Antiproliferative activity against human T47D cells assessed as reduction in cell viability after 72 hrs by MTS assay; format: functional, cell-based
# OVCAR-3 [9] = assay: Antiproliferative activity against human OVCAR-3 cells assessed as reduction in cell viability after 72 hrs by MTS assay; format: functional, cell-based; conditions: OVCAR-3, 72 h
# PANC-1 [10] = assay: Antiproliferative activity against human PANC-1 cells assessed as reduction in cell viability after 72 hrs by MTS assay; format: functional, cell-based; conditions: PANC-1, 72 h
# [11] = Stability in human liver s9 fraction assessed as parent compound remaining at 10 uM after 1 hr by LC-MS analysis; format: ADME, subcellular; conditions: read-out: Stabilty
# [12] = Solubility of compound in PBS at pH 7.4 at 300 uM after 24 hrs by HPLC-UV analysis; format: physicochemical
# [13] = Solubility of compound in PBS at pH 7.4 at pH 7.4 HPLC analysis; format: physicochemical
SMILES,Activity (LAPC4 [1]),Activity (T47D [2]),Activity (MCF7 [3]),Activity (PANC-1 [4]),Activity (BXPC-3),Activity (Hs 766),Activity (OVCAR-3 [5]),Activity (Caov-3 cell line),Activity (SK-OV-3),pIC50 (PC-3),pIC50 (LAPC4 [6]),pIC50 (LNCaP),pIC50 (MCF7 [7]),pIC50 (T47D [8]),pIC50 (OVCAR-3 [9]),pIC50 (PANC-1 [10]),"remaining at 1 h, 10 µM [11]","solubility at 24 h, 300 µM [12]",solubility [13]
"C#CC1(O)CC[C@H]2[C@@H]3CCc4cc(OS(N)(=O)=O)c(N5CCN(C(=O)[C@@H]6CCCN6C(=O)c6ccc7ccccc7n6)CC5)cc4[C@H]3CC[C@@]21C (single isomer, unassigned)",Active,Active,Active,Active,Active,Active,Active,Active,Active,5.80,6.52,6.05,5.92,6.70,5.51,5.52,35%,–,–
"C#CC1(O)CC[C@H]2[C@@H]3CCc4cc(OC(C)=O)c(N5CCN(C(=O)[C@@H]6CCCN6C(=O)c6ccc7ccccc7n6)CC5)cc4[C@H]3CC[C@@]21C (single isomer, unassigned)",Active,Active,Active,Active,Active,Active,Active,Active,Active,5.85,6.30,6.10,5.85,6.40,5.41,5.55,76%,–,–
"C#CC1(O)CC[C@H]2[C@@H]3CCc4cc(OC(=O)N(C)C)c(N5CCN(C(=O)[C@@H]6CCCN6C(=O)c6ccc7ccccc7n6)CC5)cc4[C@H]3CC[C@@]21C (single isomer, unassigned)",inactive,inactive,inactive,inactive,inactive,inactive,inactive,inactive,inactive,–,–,–,–,–,–,–,52%,–,–
CC(=O)O[C@H]1C(=O)[C@@]2(C)[C@H]([C@H](OC(=O)c3ccccc3)[C@]3(O)C[C@H](OC(=O)[C@H](O)[C@@H](NC(=O)c4ccccc4)c4ccccc4)C(C)=C1C3(C)C)[C@]1(OC(C)=O)CO[C@@H]1C[C@@H]2O,–,Active,–,–,–,–,–,–,–,–,–,–,–,–,–,–,–,–,–
Nc1ccn([C@@H]2O[C@H](CO)[C@@H](O)C2(F)F)c(=O)n1,–,Active,–,–,–,–,–,–,–,–,–,–,–,–,–,–,–,–,–
CCc1c2c(nc3ccc(OC(=O)N4CCC(N5CCCCC5)CC4)cc13)-c1cc3c(c(=O)n1C2)COC(=O)[C@]3(O)CC,–,Active,–,–,–,–,–,–,–,–,–,–,–,–,–,–,–,–,–
"C#CC1(O)CC[C@H]2[C@@H]3CCc4ccc(N5CCN(C(=O)[C@@H]6CCCN6C(=O)c6ccc7ccccc7n6)CC5)cc4[C@H]3CC[C@@]21C (single isomer, unassigned)",inactive,inactive,inactive,inactive,inactive,inactive,inactive,inactive,inactive,–,–,–,–,–,–,–,35%,–,–
"C#CC1(O)CC[C@H]2[C@@H]3CCc4cc(C(C)O)c(N5CCN(C(=O)[C@@H]6CCCN6C(=O)c6ccc7ccccc7n6)CC5)cc4[C@H]3CC[C@@]21C (single isomer, unassigned)",inactive,inactive,inactive,inactive,inactive,inactive,inactive,inactive,inactive,–,–,–,–,–,–,–,35%,–,–
C#Cc1cc2c(cc1N1CCN(C(=O)[C@@H]3CCCN3C(=O)c3ccc4ccccc4n3)CC1)[C@H]1CC[C@@]3(C)[C@@H](CC[C@@]3(O)C#C)[C@@H]1CC2,–,–,–,–,–,–,–,–,–,–,–,–,–,–,–,–,52%,–,–
CCCSc1ccc2nc(NC(=O)OC)[nH]c2c1 [ALBENDAZOLE],–,–,–,–,–,–,–,–,–,–,–,–,–,–,–,–,–,0.52 µg/mL,0.74 µg/mL
"C#CC1(O)CC[C@H]2[C@@H]3CCc4cc(OP(=O)(O)O)c(N5CCN(C(=O)[C@@H]6CCCN6C(=O)c6ccc7ccccc7n6)CC5)cc4[C@H]3CC[C@@]21C (single isomer, unassigned)",Active,Active,Active,Active,Active,Active,Active,Active,Active,5.89,6.52,6.22,5.82,6.52,5.34,5.59,52%,> 720 µg/mL,–
O=c1[nH]cc(F)c(=O)[nH]1,–,Active,–,–,–,–,–,–,–,–,–,–,–,–,–,–,–,–,–
C#C[C@]1(O)CC[C@H]2[C@@H]3CCc4cc(OC)c(C(=O)N5CCN(C(=O)[C@@H]6CCCN6C(=O)c6ccc7ccccc7n6)CC5)cc4[C@H]3CC[C@@]21C,Active,Active,Active,Active,Active,Active,Active,Active,Active,5.77,6.30,6.10,5.66,6.52,5.28,5.46,52%,–,–
"C#CC1(O)CC[C@H]2[C@@H]3CCc4cc(OC(=O)N(CC)CC)c(N5CCN(C(=O)[C@@H]6CCCN6C(=O)c6ccc7ccccc7n6)CC5)cc4[C@H]3CC[C@@]21C (single isomer, unassigned)",inactive,inactive,inactive,inactive,inactive,inactive,inactive,inactive,inactive,–,–,–,–,–,–,–,52%,–,–
C#C[C@]1(O)CC[C@H]2[C@@H]3CCc4cc(OC)c(CN5CCN(C(=O)[C@@H]6CCCN6C(=O)c6ccc7ccccc7n6)CC5)cc4[C@H]3CC[C@@]21C,Active,Active,Active,Active,Active,Active,Active,Active,Active,5.77,6.15,5.89,5.64,6.40,5.30,5.59,76%,–,–
C#C[C@]1(O)CC[C@H]2[C@@H]3CC[C@H]4C[C@H](O)[C@@H](N5CCN(C(=O)[C@@H]6CCCN6C(=O)c6ccc7ccccc7n6)CC5)C[C@]4(C)[C@H]3CC[C@@]21C,–,–,–,–,–,–,–,–,–,–,–,–,–,–,–,–,–,9 µg/mL,–
C#C[C@]1(O)CC[C@H]2[C@@H]3CCc4cc(OC)c(N5CCN(C(=O)[C@@H]6CCCN6C(=O)c6ccc7ccccc7n6)CC5)cc4[C@H]3CC[C@@]21C,Active,Active,Active,Active,Active,Active,Active,Active,Active,5.80,6.22,5.92,5.59,6.30,5.30,5.41,35%,2 µg/mL,–
"C#CC1(O)CC[C@H]2[C@@H]3CCc4cc(O)c(N5CCN(C(=O)[C@@H]6CCCN6C(=O)c6ccc7ccccc7n6)CC5)cc4[C@H]3CC[C@@]21C (single isomer, unassigned)",Active,Active,Active,Active,Active,Active,Active,Active,Active,5.85,6.40,5.96,5.85,6.30,5.36,5.51,35%,–,–
C#C[C@]1(O)CC[C@H]2[C@@H]3CCc4cc(C(C)=O)c(N5CCN(C(=O)[C@@H]6CCCN6C(=O)c6ccc7ccccc7n6)CC5)cc4[C@H]3CC[C@@]21C,inactive,inactive,inactive,inactive,inactive,inactive,inactive,inactive,inactive,–,–,–,–,–,–,–,52%,–,–
